# Results from US8518944B2, “Compounds as casein kinase inhibitors” (Pfizer Inc., priority 2009, dated 2013).
# Where a name gives a salt, the structure may show the parent alone.
# Columns and labels:
# CK1δ = CK1δ (Homo sapiens, UniProt P48730); test: CK1δ kinase assay (Kinase-Glo luminescence); format: biochemical; settings: ATP 10 μM, CK1δ enzyme 2 nM, peptide substrate 42 μM, 25° C., 85 minutes; values marked * are geometric mean of 5-16 determinations; read-out: CKIδ IC50 (nM), geometric mean of 2-4 determinations
# Chain of CK1δ (P48730 whole entry): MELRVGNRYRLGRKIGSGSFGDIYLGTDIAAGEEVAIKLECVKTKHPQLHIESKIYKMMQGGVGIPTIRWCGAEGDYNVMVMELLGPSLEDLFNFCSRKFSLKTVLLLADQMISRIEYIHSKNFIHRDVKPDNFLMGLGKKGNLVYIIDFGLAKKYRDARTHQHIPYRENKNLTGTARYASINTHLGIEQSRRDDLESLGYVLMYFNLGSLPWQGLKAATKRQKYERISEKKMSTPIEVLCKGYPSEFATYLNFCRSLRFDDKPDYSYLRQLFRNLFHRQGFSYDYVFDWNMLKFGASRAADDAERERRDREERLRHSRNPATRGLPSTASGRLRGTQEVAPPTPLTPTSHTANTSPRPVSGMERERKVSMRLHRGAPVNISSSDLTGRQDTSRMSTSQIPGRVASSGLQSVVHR
# Method: The CK1δ kinase assay was performed in a standard buffer containing ATP at 10 μM, CK1δ enzyme at 2 nM, and the peptide substrate PLSRTLpSVASLPGL at 42 μM. The reaction was incubated at 25° C. for 85 minutes. Enzyme inhibition was performed in the presence of either 1 μL of CK1δ inhibitor, or 4% DMSO. Detection of luminescent output on a PerkinElmer EnVision plate reader (PerkinElmer, Waltham, Mass.) was performed as described for the Kinase-Glo Assay (Promega).
# CK1ε wild type enzyme = CK1ε wild type enzyme (Homo sapiens, UniProt P49674); test: CK1ε kinase assay (Kinase-Glo luminescence); format: biochemical; settings: ATP 10 μM, CK1ε wild type enzyme 2.5 nM, peptide substrate 42 μM, 25° C., 70 minutes; values marked * are geometric mean of 5-16 determinations; read-out: CKIε IC50 (nM), geometric mean of 2-4 determinations
# Chain of CK1ε wild type enzyme (P49674 whole entry): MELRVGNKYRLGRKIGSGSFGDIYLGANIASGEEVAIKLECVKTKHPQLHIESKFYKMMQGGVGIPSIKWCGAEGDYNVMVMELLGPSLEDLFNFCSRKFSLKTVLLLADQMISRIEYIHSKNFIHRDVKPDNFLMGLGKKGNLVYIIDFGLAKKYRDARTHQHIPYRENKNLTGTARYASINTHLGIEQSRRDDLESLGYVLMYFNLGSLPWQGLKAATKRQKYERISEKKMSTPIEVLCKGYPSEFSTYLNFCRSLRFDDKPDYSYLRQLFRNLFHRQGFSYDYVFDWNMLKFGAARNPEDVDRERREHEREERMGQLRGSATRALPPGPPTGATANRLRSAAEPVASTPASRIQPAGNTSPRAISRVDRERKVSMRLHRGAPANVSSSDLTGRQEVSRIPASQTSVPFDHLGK
# Method: The CK1ε kinase assay was performed in a standard buffer containing ATP at 10 μM, CK1ε wild type enzyme at 2.5 nM, and 42 μM concentration of the peptide substrate PLSRTLpSVASLPGL (Flotow et al., 1990). The reaction was incubated at 25° C. for 70 minutes. Enzyme inhibition was measured in the presence of 1 μL of the CK1ε inhibitor, or 4% DMSO. Detection was carried out as described for the Kinase-Glo Assay (Promega). Luminescent output was measured on the PerkinElmer EnVision plate reader (PerkinElmer, Waltham, Mass.).
SMILES,IC50 (CK1δ),IC50 (CK1ε wild type enzyme)
"Nc1nccc(-c2c(-c3ccc(F)cc3)ncn2C2CN(Cc3ncccn3)C2)n1 [Example 1, 4-{4-(4-Fluorophenyl)-1-[1-(pyrimidin-2-ylmethyl)azetidin-3-yl]-1H-imidazol-5-yl}pyrimidin-2-amine]",163 nM,536 nM
"CNc1nccc(-c2c(-c3ccc(F)cc3)ncn2C2CCN(C(C)c3ccon3)CC2)n1 (stereo not shown) [Example 2, 4-{4-(4-Fluorophenyl)-1-[1-(1-isoxazol-3-ylethyl)piperidin-4-yl]-1H-imidazol-5-yl}-N-methylpyrimidin-2-amine]",16.7 nM,67.4 nM
"Nc1nccc(-c2c(-c3ccc(F)cc3)ncn2C2CCN(Cc3ncccn3)CC2)n1 [Example 3, 4-{4-(4-Fluorophenyl)-1-[1-(pyrimidin-2-ylmethyl)piperidin-4-yl]-1H-imidazol-5-yl}pyrimidin-2-amine]",27.8 nM,116 nM
"Nc1nccc(-c2c(-c3ccc(F)cc3)ncn2C2CCN(Cc3ccon3)CC2)n1 [Example 4, 4-{4-(4-Fluorophenyl)-1-[1-(isoxazol-3-ylmethyl)piperidin-4-yl]-1H-imidazol-5-yl}pyrimidin-2-amine]",< 4.17 nM,18.9 nM
"Nc1nccc(-c2c(-c3ccc(F)cc3)ncn2C2CCN(Cc3ccon3)C2)n1 (stereo not shown) [Example 7, 4-{4-(4-Fluorophenyl)-1-[1-(isoxazol-3-ylmethyl)pyrrolidin-3-yl]-1H-imidazol-5-yl}pyrimidin-2-amine]",67.8 nM,193 nM
"Fc1ccc(-c2ncn(C3CCN(Cc4ccon4)C3)c2-c2ccncn2)cc1 (stereo not shown) [Example 8, 4-{4-(4-Fluorophenyl)-1-[1-(isoxazol-3-ylmethyl)pyrrolidin-3-yl]-1H-imidazol-5-yl}pyrimidine]",211 nM,617 nM
"c1ccc(-c2ncn(C3CCN(Cc4ncccn4)CC3)c2-c2ccncn2)cc1 [Example 11, 2-{[4-(4-Phenyl-5-pyrimidin-4-yl-1H-imidazol-1-yl)piperidin-1-yl]methyl}pyrimidine]",790 nM,> 3660 nM
"Nc1nccc(-c2c(-c3ccccc3)ncn2C2CCN(Cc3ccon3)CC2)n1 [Example 13, 4-{1-[1-(Isoxazol-3-ylmethyl)piperidin-4-yl]-4-phenyl-1H-imidazol-5-yl}pyrimidin-2-amine, hydrochloride salt]",8.22 nM,40.9 nM
"Cc1nc(-c2ccc(F)cc2)c(-c2ccncn2)n1C1CCN(Cc2ccon2)CC1 [Example 14, 4-{4-(4-Fluorophenyl)-1-[1-(isoxazol-3-ylmethyl)piperidin-4-yl]-2-methyl-1H-imidazol-5-yl}pyrimidine]",140 nM,829 nM
"CNc1nccc(-c2c(-c3ccccc3)ncn2C2CCN(Cc3ccon3)CC2)n1 [Example 15, 4-{1-[1-(isoxazol-3-ylmethyl)piperidin-4-yl]-4-phenyl-1H-imidazol-5-yl}-N-methylpyrimidin-2-amine, hydrochloride salt]",18.6 nM,76.1 nM
"Cc1cc(CN2CCC(n3cnc(-c4ccc(F)cc4)c3-c3ccnc(N)n3)CC2)ccn1 [Example 21, 4-[4-(4-fluorophenyl)-1-{1-[(2-methylpyridin-4-yl)methyl]piperidin-4-yl}-1H-imidazol-5-yl]pyrimidin-2-amine, trifluoroacetate salt]",13 nM,59.8 nM
"COc1ccc(CN2CCC(n3cnc(-c4ccc(F)cc4)c3-c3ccnc(N)n3)CC2)cn1 [Example 22, 4-[4-(4-fluorophenyl)-1-{1-[(6-methoxypyridin-3-yl)methyl]piperidin-4-yl}-1H-imidazol-5-yl]pyrimidin-2-amine, trifluoroacetate salt]",83.6 nM,482 nM
"COc1ncccc1CN1CCC(n2cnc(-c3ccc(F)cc3)c2-c2ccnc(N)n2)CC1 [Example 26, 4-[4-(4-fluorophenyl)-1-{1-[(2-methoxypyridin-3-yl)methyl]piperidin-4-yl}-1H-imidazol-5-yl]pyrimidin-2-amine, trifluoroacetate salt]",51.9 nM,238 nM
"Cc1ncc(CN2CCC(n3cnc(-c4ccc(F)cc4)c3-c3ccnc(N)n3)CC2)cn1 [Example 27, 4-[4-(4-fluorophenyl)-1-{1-[(2-methylpyrimidin-5-yl)methyl]piperidin-4-yl}-1H-imidazol-5-yl]pyrimidin-2-amine, trifluoroacetate salt]",17.6 nM,83.2 nM

# More lines, now with the values ahead:
IC50 (CK1δ),IC50 (CK1ε wild type enzyme),SMILES
281 nM,1360 nM,"C[C@H](c1ccon1)N1CCC(n2cnc(-c3ccc(F)cc3)c2-c2ccncn2)CC1 (single isomer, unassigned) [Example 9]"
64.6 nM,277 nM,"C[C@@H](c1ccon1)N1CCC(n2cnc(-c3ccc(F)cc3)c2-c2ccncn2)CC1 (single isomer, unassigned) [Example 10]"
6.86 nM,32.3 nM,"CNc1nccc(-c2c(-c3ccc(F)cc3)ncn2C2CCN(Cc3ccon3)CC2)n1 [Example 5, 4-{4-(4-Fluorophenyl)-1-[1-(isoxazol-3-ylmethyl)piperidin-4-yl]-1H-imidazol-5-yl}-N-methylpyrimidin-2-amine]"
24 nM,126 nM,"Fc1ccc(-c2ncn(C3CCN(Cc4ccon4)CC3)c2-c2ccncn2)cc1 [Example 6, 4-{4-(4-Fluorophenyl)-1-[1-(isoxazol-3-ylmethyl)piperidin-4-yl]-1H-imidazol-5-yl}pyrimidine, hydrochloride salt]"
191 nM,660 nM,"CNc1nccc(-c2c(-c3ccccc3)ncn2C2CCN(Cc3ncccn3)CC2)n1 [Example 12, N-Methyl-4-{4-phenyl-1-[1-(pyrimidin-2-ylmethyl)piperidin-4-yl]-1H-imidazol-5-yl}pyrimidin-2-amine]"
42.8 nM,327 nM,"c1ccc(-c2ncn(C3CCN(Cc4ccon4)CC3)c2-c2ccncn2)cc1 [Example 16, 4-{1-[1-(isoxazol-3-ylmethyl)piperidin-4-yl]-4-phenyl-1H-imidazol-5-yl}pyrimidine]"
32.1 nM,144 nM,"Cc1nc2ccccc2nc1CN1CCC(n2cnc(-c3ccc(F)cc3)c2-c2ccnc(N)n2)CC1 [Example 17, 4-[4-(4-fIuorophenyl)-1-{1-[(3-methylquinoxalin-2-yl)methyl]piperidin-4-yl}-1H-imidazol-5-yl]pyrimidin-2-amine, trifluoroacetate salt]"
80.7 nM,394 nM,"Nc1nccc(-c2c(-c3ccc(F)cc3)ncn2C2CCN(Cc3ccc(C(F)(F)F)nc3)CC2)n1 [Example 18, 4-[4-(4-fluorophenyl)-1-(1-{[6-(trifluoromethyl)pyridin-3-yl]methyl}piperidin-4-yl)-1H-imidazol-5-yl]pyrimidin-2-amine, trifluoroacetate salt]"
26.8 nM,99.9 nM,"Nc1nccc(-c2c(-c3ccc(F)cc3)ncn2C2CCN(Cc3cncs3)CC2)n1 [Example 19, 4-{4-(4-fluorophenyl)-1-[1-(1,3-thiazol-5-ylmethyl)piperidin-4-yl]-1H-imidazol-5-yl}pyrimidin-2-amine, trifluoroacetate salt]"
42.8 nM,244 nM,"Cn1nccc1CN1CCC(n2cnc(-c3ccc(F)cc3)c2-c2ccnc(N)n2)CC1 [Example 20, 4-[4-(4-fluorophenyl)-1-{1-[(1-methyl-1H-pyrazol-5-yl)methyl]piperidin-4-yl}-1H-imidazol-5-yl]pyrimidin-2-amine, trifluoroacetate salt]"
8.51 nM,34.8 nM,"Nc1nccc(-c2c(-c3ccc(F)cc3)ncn2C2CCN(Cc3ccnnc3)CC2)n1 [Example 23, 4-{4-(4-fluorophenyl)-1-[1-(pyridazin-4-ylmethyl)piperidin-4-yl]-1H-imidazol-5-yl}pyrimidin-2-amine, trifluoroacetate salt]"
83.7 nM,382 nM,"CCc1csc(CN2CCC(n3cnc(-c4ccc(F)cc4)c3-c3ccnc(N)n3)CC2)n1 [Example 24, 4-[1-{1-[(4-ethyl-1,3-thiazol-2-yl)methyl]piperidin-4-yl}-4-(4-fluorophenyl)-1H-imidazol-5-yl]pyrimidin-2-amine, trifluoroacetate salt]"
84.3 nM,393 nM,"COc1cc(CN2CCC(n3cnc(-c4ccc(F)cc4)c3-c3ccnc(N)n3)CC2)ccn1 [Example 25, 4-[4-(4-fluorophenyl)-1-{1-[(2-methoxypyridin-4-yl)methyl]piperidin-4-yl}-1H-imidazol-5-yl]pyrimidin-2-amine, trifluoroacetate salt]"
54.9 nM,351 nM,"Nc1nccc(-c2c(-c3ccc(F)cc3)ncn2C2CCN(Cc3ccnc(C4CC4)n3)CC2)n1 [Example 28, 4-[1-{1-[(2-cyclopropylpyrimidin-4-yl)methyl]piperidin-4-yl}-4-(4-fluorophenyl)-1H-imidazol-5-yl]pyrimidin-2-amine, trifluoroacetate salt]"
38.8 nM,268 nM,"Cc1cc(CN2CCC(n3cnc(-c4ccc(F)cc4)c3-c3ccncn3)CC2)no1 [Example 29, 4-[4-(4-fluorophenyl)-1-{1-[(5-methylisoxazol-3-yl)methyl]piperidin-4-yl}-1H-imidazol-5-yl]pyrimidine]"
